How the values were obtained:
[1] = target: T1, isolated recombinant JAK1 kinase domain (Homo sapiens, UniProt P23458); assay: JAK enzyme assay, JAK1 kinase domain (Caliper LabChip); assay type: biochemical; conditions: 1.5 nM JAK1, ATP 25 μM, Morrison tight binding model
T1 construct: isolated recombinant JAK1 and JAK2 kinase domain
Protocol: (§1) JAK Enzyme Assays were Carried Out as Follows:
(§2) The activity of the isolated recombinant JAK1 and JAK2 kinase domain was measured by monitoring phosphorylation of a peptide derived from JAK3 (Val-Ala-Leu-Val-Asp-Gly-Tyr-Phe-Arg-Leu-Thr-Thr, fluorescently labeled on the N-terminus with 5-carboxyfluorescein) using the Caliper LabChip® technology (Caliper Life Sciences, Hopkinton, Mass.). […] Reactions were incubated at 22 °C in 384-well polypropylene microtiter plates for 30 minutes and then stopped by addition of 25 μL of an EDTA containing solution (100 mM HEPES buffer (pH 7.2), 0.015% Brij-35, 150 mM EDTA), resulting in a final EDTA concentration of 50 mM. After termination of the kinase reaction, the proportion of phosphorylated product was determined as a fraction of total peptide substrate using the Caliper LabChip® 3000 according to the manufacturer's specifications. Ki values were then determined using the Morrison tight binding model (Morrison, J. F., Biochim. Biophys. Acta. 185:269-296 (1969); William, J. W. and Morrison, J. F., Meth. Enzymol., 63:437-467 (1979)) modified for ATP-competitive inhibition [Ki=Ki,app/(1+[ATP]/Km,app)].

[2] = target: T2, isolated recombinant JAK2 kinase domain (Homo sapiens, UniProt O60674); assay: JAK enzyme assay, JAK2 kinase domain (Caliper LabChip); assay type: biochemical; conditions: 0.2 nM JAK2, ATP 25 μM, Morrison tight binding model
T2 construct: isolated recombinant JAK1 and JAK2 kinase domain
T2 sequence (O60674 849-1124 limits assumed): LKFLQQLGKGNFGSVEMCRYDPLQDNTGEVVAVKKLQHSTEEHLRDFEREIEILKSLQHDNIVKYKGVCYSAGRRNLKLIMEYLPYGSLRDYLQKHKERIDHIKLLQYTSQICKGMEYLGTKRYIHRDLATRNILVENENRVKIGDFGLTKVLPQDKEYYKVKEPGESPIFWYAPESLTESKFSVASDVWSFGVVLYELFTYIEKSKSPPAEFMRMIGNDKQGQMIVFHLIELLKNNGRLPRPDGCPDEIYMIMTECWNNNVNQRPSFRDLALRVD
Protocol: as §1, §2

[3] = test system: JAK1-dependent STAT6 phosphorylation downstream of IL-13 stimulation in BEAS-2B cells; assay: JAK1 pathway assay in cell lines: IL-13 p-STAT6 BEAS-2B; assay type: cell-based; conditions: BEAS-2B human bronchial epithelial cells, 1 hr compound, IL-13 15 min, MSD readout
Protocol: JAK1 Pathway Assay in Cell Lines was Carried Out as Follows:
Inhibitor potency (EC50) was determined in cell-based assays designed to measure JAK1 dependent STAT phosphorylation. As noted above, inhibition of IL-4, IL-13, and IL-9 signalling by blocking the Jak/Stat signaling pathway can alleviate asthmatic symptoms in pre-clinical lung inflammation models (Mathew et al., 2001, J Exp Med 193(9): 1087-1096; Kudlacz et. al., 2008, Eur J. Pharmacol 582(1-3): 154-161).
In one assay approach, TF-1 human erythroleukemia cells obtained from the American Type Culture Collection (ATCC; Manassas, Va.) were used to measure JAK1-dependent STAT6 phosphorylation downstream of IL-13 stimulation. Prior to use in the assays, TF-1 cells were starved of GM-CSF overnight in OptiMEM medium (Life Technologies, Grand Island, N.Y.) supplemented with 0.5% charcoal/dextran stripped fetal bovine serum (FBS), 0.1 mM non-essential amino acids (NEAA), and 1 mM sodium pyruvate. The assays were run in 384-well plates in serum-free OptiMEM medium using 300,000 cells per well. In a second assay approach, BEAS-2B human bronchial epithelial cells obtained from ATCC were plated at 100,000 cells per well of a 96-well plate one day prior to the experiment. The BEAS-2B assay was run in complete growth medium (bronchial epithelial basal medium plus bulletkit; Lonza; Basel, Switzerland).
Test compounds were serially diluted 1:2 in DMSO and then diluted 1:50 in medium just before use. Diluted compounds were added to the cells, for a final DMSO concentration of 0.2%, and incubated for 30 mi (for the TF-1 assay) or 1 hr (for the BEAS-2B assay) at 37 QC. Then, cells were stimulated with human recombinant cytokine at their respective EC90 concentrations, as previously determined for each individual lot. Cells were stimulated with IL-13 (R&D Systems, Minneapolis, Minn.) for 15 min at 37 °C. The TF-1 cell reactions were stopped by the direct addition of 10× lysis buffer (Cell Signaling Technologies, Danvers, Mass.), whereas the BEAS-2B cell incubations were halted by the removal of medium and addition of 1× lysis buffer. The resultant samples were frozen in the plates at −80 °C. Compound mediated inhibition of STAT6 phosphorylation was measured in the cell lysates using MesoScale Discovery (MSD) technology (Gaithersburg, Md.). EC50 values were determined as the concentration of compound required for 50% inhibition of STAT phosphorylation relative to that measured for the DMSO control.

T1 sequence (P23458 875-1153 limits assumed): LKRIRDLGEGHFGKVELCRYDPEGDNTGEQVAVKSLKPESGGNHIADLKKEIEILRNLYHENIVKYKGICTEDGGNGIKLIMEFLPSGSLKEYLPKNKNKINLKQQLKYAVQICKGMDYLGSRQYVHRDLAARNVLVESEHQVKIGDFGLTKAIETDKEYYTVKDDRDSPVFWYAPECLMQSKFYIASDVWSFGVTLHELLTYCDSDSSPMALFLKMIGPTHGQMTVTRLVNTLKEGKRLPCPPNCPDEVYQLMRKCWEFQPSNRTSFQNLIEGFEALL

Row | Compound | Ki [1] | Ki [2] | EC50 [3]
1 | CN1CCN(C(=O)Cn2cc(Nc3nc4c(N5CC(CC#N)(n6cc(C7CCCCC7)cn6)C5)cccn4n3)cn2)CC1 [Example 55] | 1 nM | 5.7 nM | 137 nM
2 | CC(C)c1cnn(C2(CC#N)CN(c3cccn4nc(Nc5cnn(CC(=O)N6CCN(C)CC6)c5)nc34)C2)c1 [Example 56, formic acid;2-[3-(4-isopropyipyrazol-1-yl)-1-[2-[[1-[2-(4-methylpiperazin-1-yl)-2-oxo-ethyl]pyrazol-4-yl]amino]-[1,2,4]triazolo[1,5-a]pyridin-8-yl]azetidin-3-yl]acetonitrile] | 2.3 nM | 10.5 nM | 319 nM
3 | CN1CCN(C(=O)Cn2cc(Nc3nc4c(N5CC(CC#N)(n6cc(F)cn6)C5)cccn4n3)cn2)CC1 [Example 19, 2-[3-(4-fluoropyrazol-1-yl)-1-[2-[[1-[2-(4-methylpiperazin-1-yl)-2-oxo-ethyl]pyrazol-4-yl]amino]-[1,2,4]triazolo[1,5-a]pyridin-8-yl]azetidin-3-yl]acetonitrile] | 4.4 nM | 4 nM | 255 nM
4 | CCc1cnn(C2(CC#N)CN(c3cccn4nc(Nc5cnn[nH]5)nc34)C2)c1 [Example 152, 2-(1-(2-((1H-1,2,3-triazol-5-yl)amino)-[1,2,4]triazolo[1,5-a]pyridin-8-yl)-3-(4-ethyl-1H-pyrazol-1-yl)azetidin-3-yl)acetonitrile] | 0.7 nM | 0.1 nM | 5 nM
5 | CN1CCN(C(=O)Cn2cc(Nc3nc4c(N5CC(CC#N)(n6cccn6)C5)cccn4n3)cn2)CC1 [Example 18] | 0.7 nM | 1.5 nM | 21 nM
6 | CN1CCN(C(=O)Cn2cc(Nc3nc4c(N5CC(CC#N)(c6ccc(Cl)c(F)c6)C5)cccn4n3)cn2)CC1 [Example 23, 2-[3-(4-chloro-3-fluoro-phenyl)-1-[2-[[1-[2-(4-methylpiperazin-1-yl)-2-oxo-ethyl]pyrazol-4-yl]amino]-[1,2,4]triazolo[1,5-a]pyridin-8-yl]azetidin-3-yl]acetonitrile] | 0.7 nM | 6.1 nM | 40 nM
7 | N#CCC1(n2cc(C(F)(F)F)cn2)CN(c2cccn3nc(Nc4cnn(CCCO)c4)nc23)C1 [Example 136] | 0.9 nM | 0.8 nM | 20 nM
8 | Cc1ccccc1-c1cnn(C2(CC#N)CN(c3cccn4nc(Nc5cnn(CC(=O)N6CCC(NCC7(C#N)CC7)CC6)c5)nc34)C2)c1 [Example 118, 1-[[[1-[2-[4-[[8-[3-(cyanomethyl)-3-[4-(o-tolyl)pyrazol-1-yl]azetidin-1-yl]-[1,2,4]triazolo[1,5-a]pyridin-2-yl]amino]pyrazol-1-yl]acetyl]-4-piperidyl]amino]methyl]cycl opropanecarbonitrile] | 1.1 nM | 7.3 nM | 99 nM

Second part, led by results:

Row | Ki [1] | Ki [2] | Compound | EC50 [3]
9 | 0.2 nM | 0.4 nM | CN1CCN(C(=O)Cn2cc(Nc3nc4c(N5CC(CC#N)(Cc6ccccc6Cl)C5)cccn4n3)cn2)CC1 [Example 126, 2-[3-[(2-chlorophenyl)methyl]-1-[2-[[1-[2-(4-methylpiperazin-1-yl)-2-oxo-ethyl]pyrazol-4-yl]amino]-[1,2,4]triazolo[1,5-a]pyridin-8-yl]azetidin-3-yl]acetonitrile] | 12 nM
10 | 0.5 nM | 0.8 nM | N#CCC1(n2cc(C(F)(F)F)cn2)CN(c2cccn3nc(Nc4cnn(CC(=O)N5CCN(C6COC6)CC5)c4)nc23)C1 [Example 97, 2-[1-[2-[[1-[2-[4-(oxetan-3-yl)piperazin-1-yl]-2-oxo-ethyl]pyrazol-4-yl]amino]-[1,2,4]triazolo[1,5-a]pyridin-8-yl]-3-[4-(trifluoromethyl)pyrazol-1-yl]azetidin-3-yl]acetonitrile] | 51 nM
11 | 0.2 nM | 0.2 nM | CN1CCN(C(=O)Cn2cc(Nc3nc4c(N5CC(CC#N)(c6ccc(F)c(Cl)c6)C5)cccn4n3)cn2)CC1 [Example 83, 2-[3-(3-chloro-4-fluoro-phenyl)-1-[2-[[1-[2-(4-methylpiperazin-1-yl)-2-oxo-ethyl]pyrazol-4-yl]amino]-[1,2,4]triazolo[1,5-a]pyridin-8-yl]azetidin-3-yl]acetonitrile] | 14 nM
12 | 0.3 nM | 0.9 nM | CSc1cccc(C2(CC#N)CN(c3cccn4nc(Nc5cnn(CC(=O)N6CCN(C)CC6)c5)nc34)C2)c1 [Example 78] | 17 nM
13 | 0.3 nM | 1.2 nM | CN1CCN(C(=O)Cn2cc(Nc3nc4c(N5CC(CC#N)(c6ccc(C(F)(F)F)cc6)C5)cccn4n3)cn2)CC1 [Example 17] | 18 nM
14 | 0.3 nM | 1.6 nM | CCc1cnn(C2(CC#N)CN(c3cccn4nc(Nc5cnn(CC(=O)N6CCC(CN7CCN(C(=O)OC)CC7)CC6)c5)nc34)C2)c1 [Example 39, methyl4-[[1-[2-[4-[[8-[3-(cyanomethyl)-3-(4-ethylpyrazol-1-yl)azetidin-1-yl]-[1,2,4]triazolo[1,5-a]pyridin-2-yl]amino]pyrazol-1-yl]acetyl]-4-piperidyl]methyl]piperazine-1-carboxylate] | 24 nM
15 | 0.3 nM | 0.1 nM | CN1CCN(C(=O)Cn2cc(Nc3nc4c(N5CC(CC#N)(n6cc(NCC(F)(F)F)cn6)C5)cccn4n3)cn2)CC1 [Example 104] | 22 nM
16 | 0.4 nM | 1.7 nM | CCc1cnn(C2(CC#N)CN(c3cccn4nc(Nc5ccc(C(=O)N6CCN(C)CC6)c(C)c5)nc34)C2)c1 [Example 92, 2-[3-(4-ethylpyrazol-1-yl)-1-[2-[3-methyl-4-(4-methylpiperazine-1-carbonyl)anilino]-[1,2,4]triazolo[1,5-a]pyridin-8-yl]azetidin-3-yl]acetonitrile] | 19 nM
17 | 0.7 nM | 0.4 nM | CN1CCN(C(=O)c2cc(Nc3nc4c(N5CC(CC#N)(n6cc(C(F)(F)F)cn6)C5)cccn4n3)ccn2)CC1 [Example 111, 2-[1-[2-[[2-(4-methylpiperazine-1-carbonyl)-4-pyridyl]amino]-[1,2,4]triazolo[1,5-a]pyridin-8-yl]-3-[4-(trifluoromethyl)pyrazol-1-yl]azetidin-3-yl]acetonitrile] | 39 nM
18 | 0.4 nM | 2.4 nM | COc1ccc(CCC2(CC#N)CN(c3cccn4nc(Nc5cnn(CC(=O)N6CCN(C)CC6)c5)nc34)C2)cc1 [Example 117, 2-[3-[2-(4-methoxyphenyl)ethyl]-1-[2-[[1-[2-(4-methylpiperazin-1-yl)-2-oxo-ethyl]pyrazol-4-yl]amino]-[1,2,4]triazolo[1,5-a]pyridin-8-yl]azetidin-3-yl]acetonitrile] | 20 nM
19 | 0.3 nM | 0.2 nM | CCc1cnn(C2(CC#N)CN(c3cccn4nc(Nc5ccc(C(=O)NCc6ccc(C)nc6)cc5)nc34)C2)c1 [Example 64, 4-[[8-[3-(cyanomethyl)-3-(4-ethylpyrazol-1-yl)azetidin-1-yl]-[1,2,4]triazolo[1,5-a]pyridin-2-yl]amino]-N-[(6-methyl-3-pyridyl)methyl]benzamide] | 15 nM

— patent US20230242530A1, “8-(AZETIDIN-1-YL)-[1,2,4]TRIAZOLO[1,5-A]PYRIDINYL COMPOUNDS, COMPOSITIONS AND METHODS OF USE THEREOF” (Genentech, Inc., priority 2016, published 2023)
